Data published in ChEMBL document CHEMBL2331532, “(+)-Laburnamine, a natural selective ligand and partial agonist for the α4β2 nicotinic receptor subtype” (J Nat Prod, 2013).
The source made the active and inactive calls. The rule behind the calls is not given here.

Columns and labels:
[1] = target: Neuronal acetylcholine receptor subunit alpha-7 (Rattus norvegicus, UniProt Q05941); assay: Displacement of [125I]alpha-bungarotoxin from alpha7 nAChR from rat hippocampus; assay type: tissue-based
[2] = target: Neuronal acetylcholine receptor; alpha3/beta4 (Homo sapiens, UniProt P30926+P32297); assay: Displacement of [3H]epibatidine from human alpha3beta4 nAChR expressed in HEK cells; assay type: cell-based, HEK293
Sequence of Neuronal acetylcholine receptor; alpha3/beta4 (P30926 whole entry): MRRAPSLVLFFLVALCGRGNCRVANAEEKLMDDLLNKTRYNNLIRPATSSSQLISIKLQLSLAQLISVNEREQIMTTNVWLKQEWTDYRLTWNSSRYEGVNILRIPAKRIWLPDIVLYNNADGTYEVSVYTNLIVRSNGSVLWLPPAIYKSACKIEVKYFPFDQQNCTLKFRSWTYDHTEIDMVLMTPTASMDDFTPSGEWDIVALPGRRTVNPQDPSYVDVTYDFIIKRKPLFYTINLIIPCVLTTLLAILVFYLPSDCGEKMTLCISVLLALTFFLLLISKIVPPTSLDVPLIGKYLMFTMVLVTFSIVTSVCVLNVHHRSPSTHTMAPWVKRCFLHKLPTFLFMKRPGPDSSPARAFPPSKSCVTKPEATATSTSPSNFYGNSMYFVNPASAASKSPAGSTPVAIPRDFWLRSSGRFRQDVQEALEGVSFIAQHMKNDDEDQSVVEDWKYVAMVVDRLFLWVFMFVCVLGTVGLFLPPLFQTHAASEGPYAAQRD
Sequence of Neuronal acetylcholine receptor; alpha3/beta4 (P32297 whole entry): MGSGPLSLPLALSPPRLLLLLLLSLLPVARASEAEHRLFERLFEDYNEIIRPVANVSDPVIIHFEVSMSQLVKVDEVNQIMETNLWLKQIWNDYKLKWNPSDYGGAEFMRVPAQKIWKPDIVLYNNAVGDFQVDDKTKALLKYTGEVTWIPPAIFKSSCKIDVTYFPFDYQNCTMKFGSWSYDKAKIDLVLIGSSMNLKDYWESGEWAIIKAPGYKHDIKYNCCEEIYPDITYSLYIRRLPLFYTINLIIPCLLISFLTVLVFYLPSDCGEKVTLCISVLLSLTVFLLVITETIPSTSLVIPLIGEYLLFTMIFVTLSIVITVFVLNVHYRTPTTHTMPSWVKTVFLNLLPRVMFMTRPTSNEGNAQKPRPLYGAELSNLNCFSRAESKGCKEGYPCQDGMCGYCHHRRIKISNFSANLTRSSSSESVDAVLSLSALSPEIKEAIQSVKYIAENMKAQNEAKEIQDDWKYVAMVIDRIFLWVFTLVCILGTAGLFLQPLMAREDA

[3] = target: T1, Neuronal acetylcholine receptor; alpha4/beta2 (Rattus norvegicus, UniProt P09483+P12390); assay: Displacement of [3H]epibatidine from alpha4beta2 nAChR in rat cortex
T1 sequence (P09483 whole entry): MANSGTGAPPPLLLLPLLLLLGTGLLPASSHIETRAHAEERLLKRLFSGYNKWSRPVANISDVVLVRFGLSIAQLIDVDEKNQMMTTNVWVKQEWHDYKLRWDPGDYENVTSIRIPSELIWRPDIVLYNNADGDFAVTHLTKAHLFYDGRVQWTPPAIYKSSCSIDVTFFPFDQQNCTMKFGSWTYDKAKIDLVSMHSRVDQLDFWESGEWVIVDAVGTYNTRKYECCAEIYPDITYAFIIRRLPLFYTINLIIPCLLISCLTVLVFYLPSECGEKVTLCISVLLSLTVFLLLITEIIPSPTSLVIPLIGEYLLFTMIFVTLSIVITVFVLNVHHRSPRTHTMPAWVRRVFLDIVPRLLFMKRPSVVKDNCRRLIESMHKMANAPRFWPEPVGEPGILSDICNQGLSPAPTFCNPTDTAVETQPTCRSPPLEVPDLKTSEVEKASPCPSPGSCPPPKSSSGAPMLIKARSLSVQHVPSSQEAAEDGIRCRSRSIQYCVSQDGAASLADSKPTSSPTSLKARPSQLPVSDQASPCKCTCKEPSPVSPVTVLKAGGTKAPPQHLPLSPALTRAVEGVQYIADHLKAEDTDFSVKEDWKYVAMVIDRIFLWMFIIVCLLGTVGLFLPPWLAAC
T1 sequence (P12390 whole entry): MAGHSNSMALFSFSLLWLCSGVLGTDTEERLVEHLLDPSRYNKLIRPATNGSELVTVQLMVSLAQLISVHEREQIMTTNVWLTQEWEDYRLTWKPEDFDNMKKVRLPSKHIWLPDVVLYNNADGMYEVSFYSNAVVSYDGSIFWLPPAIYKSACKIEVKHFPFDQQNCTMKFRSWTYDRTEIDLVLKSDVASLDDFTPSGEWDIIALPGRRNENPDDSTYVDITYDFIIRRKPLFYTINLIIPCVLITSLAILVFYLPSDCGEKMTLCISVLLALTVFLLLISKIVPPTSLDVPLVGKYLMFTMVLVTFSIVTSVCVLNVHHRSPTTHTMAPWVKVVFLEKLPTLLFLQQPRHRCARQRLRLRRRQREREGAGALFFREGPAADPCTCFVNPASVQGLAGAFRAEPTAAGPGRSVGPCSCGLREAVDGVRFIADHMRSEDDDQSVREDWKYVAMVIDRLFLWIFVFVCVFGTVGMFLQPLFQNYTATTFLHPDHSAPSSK

[4] = target: Neuronal acetylcholine receptor; alpha4/beta2 (Homo sapiens, UniProt P17787+P43681); assay: Displacement of [3H]epibatidine from alpha4beta2 nAChR (unknown origin); assay type: protein-complex assay
Sequence of Neuronal acetylcholine receptor; alpha4/beta2 (Homo sapiens, UniProt P17787+P43681) (P17787 whole entry): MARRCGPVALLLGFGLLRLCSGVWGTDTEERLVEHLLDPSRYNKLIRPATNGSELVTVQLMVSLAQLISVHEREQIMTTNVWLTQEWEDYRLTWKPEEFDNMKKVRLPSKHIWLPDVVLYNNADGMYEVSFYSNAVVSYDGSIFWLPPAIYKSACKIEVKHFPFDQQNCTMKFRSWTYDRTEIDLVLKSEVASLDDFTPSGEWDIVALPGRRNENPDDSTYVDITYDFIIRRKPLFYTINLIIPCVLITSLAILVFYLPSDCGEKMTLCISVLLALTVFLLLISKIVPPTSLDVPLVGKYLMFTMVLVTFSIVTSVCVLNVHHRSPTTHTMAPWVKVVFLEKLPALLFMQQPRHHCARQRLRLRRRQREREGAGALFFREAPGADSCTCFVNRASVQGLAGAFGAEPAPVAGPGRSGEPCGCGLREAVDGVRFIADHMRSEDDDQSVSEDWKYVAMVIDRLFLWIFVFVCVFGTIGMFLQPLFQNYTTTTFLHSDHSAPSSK
Sequence of Neuronal acetylcholine receptor; alpha4/beta2 (Homo sapiens, UniProt P17787+P43681) (P43681 whole entry): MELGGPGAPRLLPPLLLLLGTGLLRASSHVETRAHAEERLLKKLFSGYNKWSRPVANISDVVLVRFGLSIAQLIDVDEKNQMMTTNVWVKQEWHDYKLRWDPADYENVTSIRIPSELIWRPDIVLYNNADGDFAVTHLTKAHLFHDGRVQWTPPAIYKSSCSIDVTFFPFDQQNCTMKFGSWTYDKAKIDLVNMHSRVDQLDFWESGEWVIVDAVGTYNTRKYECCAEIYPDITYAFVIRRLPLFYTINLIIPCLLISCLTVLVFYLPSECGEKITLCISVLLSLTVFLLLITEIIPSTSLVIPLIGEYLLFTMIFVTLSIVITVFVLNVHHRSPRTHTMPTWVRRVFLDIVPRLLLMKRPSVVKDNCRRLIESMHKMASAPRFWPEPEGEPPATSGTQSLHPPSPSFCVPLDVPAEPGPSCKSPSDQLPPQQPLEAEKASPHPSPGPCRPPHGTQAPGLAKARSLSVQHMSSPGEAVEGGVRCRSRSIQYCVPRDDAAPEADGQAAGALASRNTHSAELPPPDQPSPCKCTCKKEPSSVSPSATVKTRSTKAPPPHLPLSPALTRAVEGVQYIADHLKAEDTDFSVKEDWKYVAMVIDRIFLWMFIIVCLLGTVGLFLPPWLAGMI

[5] = target: Neuronal acetylcholine receptor subunit alpha-7 (Homo sapiens, UniProt P36544); assay: Displacement of [3H]methyllycaconitine from alpha7 nAChR (unknown origin)
Sequence of Neuronal acetylcholine receptor subunit alpha-7 (Homo sapiens, UniProt P36544) (P36544 whole entry): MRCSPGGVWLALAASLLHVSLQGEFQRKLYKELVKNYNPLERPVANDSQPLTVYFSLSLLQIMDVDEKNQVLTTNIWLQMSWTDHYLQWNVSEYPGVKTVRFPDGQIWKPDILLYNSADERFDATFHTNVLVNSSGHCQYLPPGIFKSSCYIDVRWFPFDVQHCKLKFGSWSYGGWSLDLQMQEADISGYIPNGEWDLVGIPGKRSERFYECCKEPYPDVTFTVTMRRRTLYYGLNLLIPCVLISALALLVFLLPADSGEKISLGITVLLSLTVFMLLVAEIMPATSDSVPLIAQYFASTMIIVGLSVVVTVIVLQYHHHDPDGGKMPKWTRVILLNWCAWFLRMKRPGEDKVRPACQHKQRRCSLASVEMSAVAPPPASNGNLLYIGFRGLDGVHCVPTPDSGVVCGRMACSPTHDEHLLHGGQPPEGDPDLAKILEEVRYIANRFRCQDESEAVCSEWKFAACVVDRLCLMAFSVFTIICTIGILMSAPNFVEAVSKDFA

[6] = target: T2, Neuronal acetylcholine receptor; alpha4/beta2 (Rattus norvegicus) (UniProt P09483+P12390); assay: Displacement of [3H]epibatidine from alpha4beta2 nAChR in rat cortex up to 100 uM
[7] = target: T2, Neuronal acetylcholine receptor; alpha4/beta2 (Rattus norvegicus); assay: Agonist activity at alpha4beta2 nAChR in rat brain striatal slices assessed as release of [3H]dopamine release relative to nicotine; assay type: tissue-based
Rattus norvegicus = species: Rattus norvegicus; assay: Selectivity ratio of Ki for alpha7 nAChR in rat hippocampus to Ki for alpha4beta2 nAChR in rat cortex; assay type: tissue-based
[8] = target: T2, Neuronal acetylcholine receptor; alpha4/beta2 (Rattus norvegicus); assay: (§1) Antagonist activity at alpha4beta2 nAChR in rat brain striatal slices assessed as inhibition of nicotine-induced release of [3H]dopamine release; assay type: tissue-based; settings: concentration not given here
[9] = target: T1, Neuronal acetylcholine receptor; alpha4/beta2; assay: as §1; assay type: tissue-based
[10] = target: T3, Acetylcholine receptor; alpha1/beta1/delta/gamma (Homo sapiens, UniProt P02708+P07510+P11230+Q07001); assay: Displacement of [125I]alpha-bungarotoxin from human alpha2betagammadelta nAChR at 10 uM; assay type: protein-complex assay
[11] = target: T3, Acetylcholine receptor; alpha1/beta1/delta/gamma; assay: Displacement of [125I]alpha-bungarotoxin from human alpha2betagammadelta nAChR; assay type: protein-complex assay
[12] = Selectivity ratio of Ki for human alpha3beta4 nAChR to Ki for alpha4beta2 nAChR in rat cortex
[13] = target: T1, Neuronal acetylcholine receptor; alpha4/beta2; assay: Agonist activity at alpha4beta2 nAChR in rat brain striatal slices assessed as release of [3H]dopamine release; assay type: tissue-based

Sequence of Neuronal acetylcholine receptor subunit alpha-7 (Rattus norvegicus, UniProt Q05941) (Q05941 whole entry): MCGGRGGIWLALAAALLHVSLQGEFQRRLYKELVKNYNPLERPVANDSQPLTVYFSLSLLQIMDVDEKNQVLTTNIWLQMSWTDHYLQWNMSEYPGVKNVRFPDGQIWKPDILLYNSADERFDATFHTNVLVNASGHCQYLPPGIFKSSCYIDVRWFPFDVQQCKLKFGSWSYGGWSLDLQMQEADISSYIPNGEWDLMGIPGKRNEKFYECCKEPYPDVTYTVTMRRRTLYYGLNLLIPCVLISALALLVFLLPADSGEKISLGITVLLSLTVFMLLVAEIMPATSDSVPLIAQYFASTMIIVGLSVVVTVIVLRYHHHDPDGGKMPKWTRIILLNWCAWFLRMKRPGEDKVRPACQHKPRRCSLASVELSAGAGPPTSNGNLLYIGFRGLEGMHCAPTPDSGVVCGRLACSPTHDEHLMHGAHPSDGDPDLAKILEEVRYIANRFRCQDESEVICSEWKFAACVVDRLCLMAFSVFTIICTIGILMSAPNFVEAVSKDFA

Compound: O=c1cccc2n1C[C@@H]1CNC[C@H]2C1 [CYTISINICLINE]
- Ki [1]: 0.23 µM
- Ki [2]: 0.28 µM
- Ki [3]: 0.0021 µM

Compound: CC(C)C(=O)N[C@H]1CCCN2CCCC[C@@H]12 (racemic)
- Ki [3]: 6.81 µM

Compound: CC(C)C(=O)N[C@@H]1CCN2CCCC[C@@H]12 (racemic)
- Ki [1]: 29 µM
- Ki [3]: 100 µM

Compound: CC(C)C(=O)N[C@H]1CCCN2CCCC[C@H]12 (racemic)
- Ki [3]: 6.05 µM

Compound: CCC(=O)N[C@H]1CCCN2CCCC[C@H]12 (racemic)
- Ki [3]: 6.15 µM

Compound: CC(=O)C1=CC[C@@H]2CC[C@H]1N2
- Ki [4]: 0.094 µM
- Ki [5]: 100 µM

Compound: CC(C)C(=O)N[C@H]1CCN2CCCC[C@@H]12 (racemic)
- Ki [1]: 26 µM
- Ki [3]: 283 µM

Compound: CC(=O)N[C@H]1CCCN2CCCC[C@@H]12
- Activity [6]: inactive

Compound: CCC(=O)N[C@H]1CCCN2CCCC[C@@H]12 (racemic)
- Ki [3]: 4.44 µM

Compound: CCC(C)C(=O)N[C@H]1CCN2CCC[C@H]12 (stereo not given in full)
- Efficacy [7]: 43%
- Ki [1]: 40 µM
- Ratio Ki (Rattus norvegicus): 136
- inhibition [8]: 46%
- IC50 [9]: 1.6 µM
- Ki [2]: 37 µM
- Ki [3]: 0.29 µM
- Activity [10]: 5%
- Ki [11]: > 10 µM
- Ratio Ki [12]: 126
- EC50 [13]: 5.8 µM
